# Like-named read-outs stand apart in the source and are kept apart here.
# Columns and labels:
# [1] = molecular target: T1, Rat recombinant PDE10A (rPDE10A2) (Rattus norvegicus, UniProt Q9QYJ6); experiment: In vitro assay PDE10A (SPA, 3H-cAMP); format: biochemical
# T1 construct: inferred from the Ni metal chelate purification; made in house; host or cells: Sf9 insect cells (baculovirus)
# T1 sequence (Q9QYJ6 1-794): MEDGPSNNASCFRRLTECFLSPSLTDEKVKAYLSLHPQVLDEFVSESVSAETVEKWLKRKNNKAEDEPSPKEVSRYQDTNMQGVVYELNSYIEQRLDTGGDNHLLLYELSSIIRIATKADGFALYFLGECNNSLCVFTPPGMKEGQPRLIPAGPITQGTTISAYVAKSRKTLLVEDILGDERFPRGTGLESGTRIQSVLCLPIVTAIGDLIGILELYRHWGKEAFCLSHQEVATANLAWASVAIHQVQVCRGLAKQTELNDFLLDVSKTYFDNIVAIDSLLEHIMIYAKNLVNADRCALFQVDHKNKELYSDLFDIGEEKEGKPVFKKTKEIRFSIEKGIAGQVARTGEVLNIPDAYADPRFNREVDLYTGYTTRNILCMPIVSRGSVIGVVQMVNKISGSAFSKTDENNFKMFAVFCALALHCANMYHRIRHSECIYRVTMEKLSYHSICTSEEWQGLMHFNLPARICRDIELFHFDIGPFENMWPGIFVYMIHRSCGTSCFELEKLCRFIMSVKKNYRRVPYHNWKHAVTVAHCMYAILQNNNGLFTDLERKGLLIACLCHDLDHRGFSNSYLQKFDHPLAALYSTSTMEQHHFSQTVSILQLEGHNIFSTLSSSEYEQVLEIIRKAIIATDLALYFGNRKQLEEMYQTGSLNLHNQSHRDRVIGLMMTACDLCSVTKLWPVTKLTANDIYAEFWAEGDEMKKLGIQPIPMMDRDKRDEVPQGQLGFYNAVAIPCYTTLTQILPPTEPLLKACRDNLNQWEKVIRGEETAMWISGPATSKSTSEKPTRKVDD
# Summary of the method: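 Scintillation proximity read-out (cpm) of 3H-cAMP hydrolysis after 60 min at room temperature, with enzyme-free blanks and 1% DMSO controls. Enzyme was Sf9-expressed, Ni-sepharose-purified rat rPDE10A2; substrate 60 nM cAMP with tracer, buffer Tris pH 7.8 containing MgCl2 and EGTA.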
# [2] = tested on: apomorphine-induced stereotypy in rats; experiment: Apomorphine-induced stereotypy in rats (APO); format: in vivo; conditions: Rattus norvegicus
# Method: Apomorphine (1.0 mg/kg, i.v.)-induced stereotypy (compulsive sniffing, licking, chewing) was scored every 5 min over the first hour after injection of apomorphine, following a 1 hour interval pre-treatment with the test compound. The score system was: (3) pronounced, (2) moderate, (1) slight, and (0) absent.
# PDE4D3 = PDE4D3 (Homo sapiens, UniProt Q08499); experiment: In vitro PDE selectivity assay (SPA), PDE4D3; format: biochemical; conditions: hPDE4D3; read-out: PDE 4D3 (expressed as pIC50) (converted)
# PDE4D3, sequence (Q08499 1-673 isoform Q08499-2): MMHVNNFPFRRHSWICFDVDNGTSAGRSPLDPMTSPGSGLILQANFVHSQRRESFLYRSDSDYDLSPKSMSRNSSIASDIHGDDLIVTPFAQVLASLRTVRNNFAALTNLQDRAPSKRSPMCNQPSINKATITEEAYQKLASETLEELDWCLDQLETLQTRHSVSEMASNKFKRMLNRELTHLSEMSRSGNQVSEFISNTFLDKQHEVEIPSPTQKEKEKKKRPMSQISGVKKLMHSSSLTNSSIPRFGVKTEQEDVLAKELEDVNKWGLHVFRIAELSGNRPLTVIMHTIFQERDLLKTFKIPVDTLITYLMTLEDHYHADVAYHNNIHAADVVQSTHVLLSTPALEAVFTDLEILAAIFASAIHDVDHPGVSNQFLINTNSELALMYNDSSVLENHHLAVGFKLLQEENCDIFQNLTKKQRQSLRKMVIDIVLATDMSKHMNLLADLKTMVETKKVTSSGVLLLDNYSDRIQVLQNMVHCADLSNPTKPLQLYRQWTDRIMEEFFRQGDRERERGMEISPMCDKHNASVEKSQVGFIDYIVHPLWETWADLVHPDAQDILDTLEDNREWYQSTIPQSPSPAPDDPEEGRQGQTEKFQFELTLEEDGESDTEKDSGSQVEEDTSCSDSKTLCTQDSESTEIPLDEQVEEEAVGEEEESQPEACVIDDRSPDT
# Summary of the method: (§1)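 Inhibition of each PDE isoform was measured by scintillation proximity assay with ³H-cyclic nucleotide substrate, using incubation buffer, substrate concentration, incubation time and stop solution adapted per isoform. Compounds were tested in dose-response against 1% DMSO controls and enzyme-free blanks. IC50 came from a least-squares fit of blank-subtracted % of control versus concentration.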
# [3] = molecular target: other members of the PDE family (Homo sapiens, UniProt O60658); experiment: In vitro PDE selectivity assay (SPA), other members of the PDE family (protocols in Table A); format: biochemical; conditions: hPDE8A1; read-out: PDE 8A1 (expressed as pIC50) (converted)
# Summary of the method: as §1
# [4] = molecular target: other members of the PDE family (Homo sapiens, UniProt Q9HCR9); experiment: as above; format: biochemical; conditions: hPDE11A4; read-out: PDE 11A4 (expressed as pIC50) (converted)
# other members of the PDE family (Homo sapiens, UniProt Q9HCR9), sequence (Q9HCR9 whole entry): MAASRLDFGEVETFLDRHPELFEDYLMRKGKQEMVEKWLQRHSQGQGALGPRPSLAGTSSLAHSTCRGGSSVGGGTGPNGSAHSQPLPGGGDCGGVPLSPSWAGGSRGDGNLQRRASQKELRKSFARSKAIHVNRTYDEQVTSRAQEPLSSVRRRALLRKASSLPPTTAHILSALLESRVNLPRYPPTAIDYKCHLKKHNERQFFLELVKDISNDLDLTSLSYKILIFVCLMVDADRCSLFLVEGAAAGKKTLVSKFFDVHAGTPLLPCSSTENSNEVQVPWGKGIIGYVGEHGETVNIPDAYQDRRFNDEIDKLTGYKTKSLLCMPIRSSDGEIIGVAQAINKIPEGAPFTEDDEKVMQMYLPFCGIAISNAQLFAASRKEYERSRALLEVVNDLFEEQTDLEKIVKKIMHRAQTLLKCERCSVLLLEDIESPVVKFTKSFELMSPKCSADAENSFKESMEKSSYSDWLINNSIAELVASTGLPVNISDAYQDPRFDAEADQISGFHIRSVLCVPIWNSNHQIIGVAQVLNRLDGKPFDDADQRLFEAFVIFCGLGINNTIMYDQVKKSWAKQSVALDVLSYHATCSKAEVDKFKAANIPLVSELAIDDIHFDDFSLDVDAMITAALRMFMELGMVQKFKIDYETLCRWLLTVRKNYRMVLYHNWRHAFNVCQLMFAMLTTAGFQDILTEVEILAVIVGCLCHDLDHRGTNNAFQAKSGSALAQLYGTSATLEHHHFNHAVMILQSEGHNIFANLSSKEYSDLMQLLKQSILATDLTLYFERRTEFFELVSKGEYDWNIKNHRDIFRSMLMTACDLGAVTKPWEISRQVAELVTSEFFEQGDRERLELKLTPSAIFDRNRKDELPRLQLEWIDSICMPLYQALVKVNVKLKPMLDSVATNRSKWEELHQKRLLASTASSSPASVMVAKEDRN
# Summary of the method: as §1
# [5] = molecular target: other members of the PDE family (Homo sapiens, UniProt Q13946); experiment: as above; format: biochemical; conditions: hPDE7A1; read-out: PDE 7A (expressed as pIC50) (converted)
# other members of the PDE family (Homo sapiens, UniProt Q13946), sequence (Q13946 whole entry): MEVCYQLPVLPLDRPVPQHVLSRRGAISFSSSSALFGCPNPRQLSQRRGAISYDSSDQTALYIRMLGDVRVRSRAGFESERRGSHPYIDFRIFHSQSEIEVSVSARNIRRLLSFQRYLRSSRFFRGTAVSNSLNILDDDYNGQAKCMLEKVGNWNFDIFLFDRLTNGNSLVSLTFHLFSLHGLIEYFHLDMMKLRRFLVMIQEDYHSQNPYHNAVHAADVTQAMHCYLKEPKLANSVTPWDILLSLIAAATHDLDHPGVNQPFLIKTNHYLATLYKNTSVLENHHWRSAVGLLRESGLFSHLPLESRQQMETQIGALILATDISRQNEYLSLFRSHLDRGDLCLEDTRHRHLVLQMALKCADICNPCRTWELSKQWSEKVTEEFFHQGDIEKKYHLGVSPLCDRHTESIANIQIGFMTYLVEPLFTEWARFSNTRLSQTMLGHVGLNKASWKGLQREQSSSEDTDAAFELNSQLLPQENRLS
# Summary of the method: as §1
# [6] = molecular target: other members of the PDE family (Homo sapiens, UniProt Q14432); experiment: as above; format: biochemical; conditions: hPDE3A; read-out: PDE 3A (expressed as pIC50) (converted)
# other members of the PDE family (Homo sapiens, UniProt Q14432), sequence (Q14432 whole entry): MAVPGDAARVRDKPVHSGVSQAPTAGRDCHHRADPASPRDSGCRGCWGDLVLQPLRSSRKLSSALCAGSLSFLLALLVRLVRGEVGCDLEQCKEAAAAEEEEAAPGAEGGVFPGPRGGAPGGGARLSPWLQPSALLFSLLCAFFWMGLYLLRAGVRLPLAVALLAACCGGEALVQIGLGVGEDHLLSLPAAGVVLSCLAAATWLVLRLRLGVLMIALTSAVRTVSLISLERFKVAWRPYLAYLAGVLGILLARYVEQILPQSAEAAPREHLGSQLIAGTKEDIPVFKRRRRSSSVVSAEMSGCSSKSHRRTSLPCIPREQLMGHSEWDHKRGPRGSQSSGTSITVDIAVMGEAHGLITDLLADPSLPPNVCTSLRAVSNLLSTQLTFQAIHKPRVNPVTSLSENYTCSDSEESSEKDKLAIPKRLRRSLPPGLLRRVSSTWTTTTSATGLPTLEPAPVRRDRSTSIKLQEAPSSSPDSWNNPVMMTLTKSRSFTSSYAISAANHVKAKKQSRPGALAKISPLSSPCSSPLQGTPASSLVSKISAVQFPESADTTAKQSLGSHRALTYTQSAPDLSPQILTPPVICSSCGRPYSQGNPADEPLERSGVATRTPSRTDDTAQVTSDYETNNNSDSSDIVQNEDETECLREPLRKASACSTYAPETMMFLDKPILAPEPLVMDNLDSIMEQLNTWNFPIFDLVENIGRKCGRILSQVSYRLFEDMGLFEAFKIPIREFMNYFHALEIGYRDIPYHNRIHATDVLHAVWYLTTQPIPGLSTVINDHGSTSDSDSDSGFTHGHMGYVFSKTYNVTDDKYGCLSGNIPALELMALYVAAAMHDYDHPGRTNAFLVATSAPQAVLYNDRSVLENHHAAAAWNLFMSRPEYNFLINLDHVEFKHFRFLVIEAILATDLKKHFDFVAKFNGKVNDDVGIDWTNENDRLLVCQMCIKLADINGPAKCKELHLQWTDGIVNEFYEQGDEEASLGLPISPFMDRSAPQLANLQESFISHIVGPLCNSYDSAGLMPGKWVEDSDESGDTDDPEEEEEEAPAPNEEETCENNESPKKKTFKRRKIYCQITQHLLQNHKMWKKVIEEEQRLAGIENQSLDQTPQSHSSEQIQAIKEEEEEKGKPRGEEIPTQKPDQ
# Summary of the method: as §1
# [7] = molecular target: other members of the PDE family (Homo sapiens, UniProt P16499+P35913); experiment: as above; format: biochemical; conditions: hPDE6AB; read-out: PDE 6AB (expressed as pIC50) (converted)
# Summary of the method: as §1
# [8] = molecular target: other members of the PDE family (Homo sapiens, UniProt O76083); experiment: as above; format: biochemical; conditions: hPDE9A; read-out: PDE 9A (expressed as pIC50) (converted)
# other members of the PDE family (Homo sapiens, UniProt O76083), sequence (O76083 whole entry): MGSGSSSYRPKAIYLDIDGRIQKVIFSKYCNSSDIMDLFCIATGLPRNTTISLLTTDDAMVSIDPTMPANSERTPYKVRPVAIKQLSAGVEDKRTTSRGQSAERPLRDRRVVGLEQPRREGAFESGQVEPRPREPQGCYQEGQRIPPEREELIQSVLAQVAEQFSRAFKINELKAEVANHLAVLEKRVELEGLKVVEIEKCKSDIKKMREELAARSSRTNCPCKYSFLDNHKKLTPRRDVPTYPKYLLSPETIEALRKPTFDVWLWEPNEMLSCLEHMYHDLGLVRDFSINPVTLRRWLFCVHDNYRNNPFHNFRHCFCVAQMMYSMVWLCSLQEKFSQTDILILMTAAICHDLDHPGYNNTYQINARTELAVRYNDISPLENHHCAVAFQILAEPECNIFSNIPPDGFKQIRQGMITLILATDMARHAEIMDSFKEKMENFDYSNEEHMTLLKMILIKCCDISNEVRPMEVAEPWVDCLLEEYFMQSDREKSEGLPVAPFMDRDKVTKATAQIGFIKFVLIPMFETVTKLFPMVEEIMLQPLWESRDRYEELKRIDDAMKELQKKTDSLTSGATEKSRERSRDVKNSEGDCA
# Summary of the method: as §1
# [9] = molecular target: other members of the PDE family (Homo sapiens, UniProt O00408); experiment: as above; format: biochemical; conditions: hPDE2A; read-out: PDE 2A (expressed as pIC50) (converted)
# other members of the PDE family (Homo sapiens, UniProt O00408), sequence (O00408 whole entry): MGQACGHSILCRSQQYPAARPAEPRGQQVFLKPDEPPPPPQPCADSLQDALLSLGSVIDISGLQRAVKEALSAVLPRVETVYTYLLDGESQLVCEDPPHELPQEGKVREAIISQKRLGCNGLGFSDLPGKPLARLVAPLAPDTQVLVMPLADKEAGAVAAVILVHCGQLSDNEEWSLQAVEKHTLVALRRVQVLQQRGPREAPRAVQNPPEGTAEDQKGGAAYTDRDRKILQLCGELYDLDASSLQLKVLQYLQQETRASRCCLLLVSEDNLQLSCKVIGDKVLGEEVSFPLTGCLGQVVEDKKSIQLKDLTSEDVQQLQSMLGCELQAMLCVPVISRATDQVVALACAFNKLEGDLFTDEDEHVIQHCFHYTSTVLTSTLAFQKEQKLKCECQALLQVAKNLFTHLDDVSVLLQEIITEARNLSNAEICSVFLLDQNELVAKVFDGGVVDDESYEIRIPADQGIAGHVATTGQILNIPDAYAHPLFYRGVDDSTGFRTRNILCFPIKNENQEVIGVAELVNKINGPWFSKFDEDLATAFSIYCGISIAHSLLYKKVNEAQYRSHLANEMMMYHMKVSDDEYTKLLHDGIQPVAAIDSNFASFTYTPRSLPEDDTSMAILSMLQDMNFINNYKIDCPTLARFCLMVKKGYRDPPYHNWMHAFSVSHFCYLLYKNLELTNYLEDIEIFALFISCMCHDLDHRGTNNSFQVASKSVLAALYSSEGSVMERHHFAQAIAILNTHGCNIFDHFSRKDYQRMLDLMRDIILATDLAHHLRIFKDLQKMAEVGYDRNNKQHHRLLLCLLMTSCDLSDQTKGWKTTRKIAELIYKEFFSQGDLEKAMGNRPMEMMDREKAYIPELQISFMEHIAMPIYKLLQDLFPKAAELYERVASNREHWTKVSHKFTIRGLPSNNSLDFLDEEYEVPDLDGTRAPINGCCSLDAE
# Summary of the method: as §1
# PDE5A3 = PDE5A3 (Homo sapiens, UniProt O76074); experiment: In vitro PDE selectivity assay (SPA), PDE5A3; format: biochemical; conditions: hPDE5A3; read-out: PDE 5A3 (expressed as pIC50) (converted)
# Summary of the method: as §1
# [10] = tested on: female hooded-Lister rats; experiment: Object recognition test (NOR) after sub-chronic PCP; format: in vivo, rat; conditions: PCP + 1 mg/kg p.o., Day 1, 3 min retention trial, mean
# [11] = tested on: female hooded-Lister rats; experiment: as above; format: in vivo, rat
# Method: 60 female hooded-Lister rats (Charles River, UK) were used as subjects for these studies and weighed 248 g±20 g. Rats were allowed at least a 7-day acclimatization period to the animal unit prior to commencement of experimentation. Rats were housed in groups of 5 under standard laboratory conditions under a 12 h light:dark cycle, lights on at 0700 h. All testing was carried out in the light phase. Food and water were freely provided. All experiments were conducted in accordance with the Animals Scientific Procedures Act, U.K. 1986 and were approved by the University of Bradford ethical review panel.
# 40 mg of test compound was dissolved in 5 ml of 40% hydroxypropyl β-cyclodextrin (HPBC) solution. The solution was sonicated until completely dissolved. 2 ml of sterile water was added and the pH measured and adjusted with NaOH solution (0.1N) to obtain pH ˜4. Finally, sterile water was added to a final volume of 10 ml. This stock solution was then diluted in 20% HPBC to obtain the final concentrations. 100 mg of PQ10 was dissolved in a 40% HPBC solution and 8 mg of tartaric acid. The solution was sonicated until completely dissolved. 5 ml of sterile water was added and the pH measured and adjusted with NaOH solution (0.1N) to obtain pH ˜4. Finally sterile water was added to a final volume of 10 ml.
# Test compound was administered at doses of 0.3 and 1.0 mg/kg via the oral route 30 min prior to testing.
# PQ10 was administered at a dose of 1.0 mg/kg via the oral route 30 min prior to testing.
# Certain pre-clinical tests allow the observation of relatively subtle cognitive deficits in the rat that resemble cognitive symptoms in subjects with schizophrenia. The cognitive deficits observed are seen in behaviours such as episodic memory, which can be measured by recognition tasks such as the novel object recognition (NOR) paradigm. A recognition memory task allows the comparison between presented stimuli and previously stored information. Ennaceur, A Delacour, J (1988) A new one-trial test for neurobiological studies of memory in rats Behav Brain Res 31: 47-59 described the NOR test in rats which was based on the differential exploration of familiar and new objects. The NOR test is a non-rewarded, ethologically relevant paradigm based on the spontaneous exploratory behaviour of rats that measures episodic memory. Each session consists of two trials. In the first trial, the rats are exposed to two identical objects in an open field. During the second trial, rats are exposed to two dissimilar objects, one familiar object from the first trial and one new object. Object recognition in rats can be measured as the difference in time spent exploring the familiar and the new object. […] The duration of each trial is also important as a preference for the novel object only lasts during the first 1 or 2 minutes, after which time preference diminishes as both objects become familiar and are explored equally.
# Rats were randomly assigned to the 8 treatment groups
# Rats were allowed to habituate to the empty test box and the behavioural test room environment for 1 h on day 1. Prior to behavioural testing on day 2 rats were given a further 3 min habituation.
# Following the 3 min habituation period, the rats were given two 3 min trials (T1 and T2) which were separated by a 1 min inter-trial interval in the home cage during which the objects were changed.
# In this trial, the animals were allowed to explore two identical objects (A1 and A2) for 3 min.
# In this trial, the animals explored a familiar object (A) from T1 and a novel object (B) for 3 min. The familiar object presented during T2 was a duplicate of the object presented in T1 in order to avoid any olfactory trails.
# The object exploration was defined by animals licking, sniffing or touching the object with the forepaws whilst sniffing, but not leaning against, turning around, standing or sitting on the object. […]
# PDE10 = molecular target: T2, PDE10 (Rattus norvegicus, UniProt Q9QYJ6); experiment: PDE10 occupancy ([3H]-MP-10, striatum); format: in vivo; conditions: rat, sc; for receptor occupancy at 10 mg/kg: single dose 10 mg/kg, subcutaneous, read-out: SD sc % occupancy at 10 mg/kg
# T2 construct: from tissue; host or cells: rat brain sections, striatum (in vivo dosing, ex vivo autoradiography)
# T2 sequence (Q9QYJ6 1-794): T1 sequence (Q9QYJ6 1-794)
# Summary of the method: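 Male Wistar rats (200 g) dosed s.c. or p.o.; occupancy measured 1 h post-dose. [^3H]-MP-10 (10 μCi/animal) given i.v. 30 min before sacrifice.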
# PDE1B1 = PDE1B1 (Homo sapiens, UniProt Q01064); experiment: In vitro PDE selectivity assay (SPA), PDE1B1; format: biochemical; conditions: hPDE1B1; read-out: PDE 1B1 (expressed as pIC50) (converted)
# [12] = pIC50 corresponds to the −log IC50 expressed in mol/L, read-out: PDE10A2 pIC50 (converted)
# [13] = Table 4 in vitro selectivity, read-out: PDE 10A2 (expressed as pIC50) (converted)
# [14] = dose at which 50% of the tested animals show the effect, ≧: active in 30% of the animals at the indicated dose, ≦: active in 60%
Structure (SMILES),"IC50 [1, 12] [µM]",IC50 (PDE4D3) [µM],IC50 [4] [µM],IC50 [5] [µM],IC50 [6] [µM],IC50 [8] [µM],IC50 [9] [µM],"IC50 [1, 13] [µM]",IC50 (PDE5A3) [µM],"ED50 [2, 14] [mg/kg]",also measured
"Cc1nc2c(-c3ccncc3)ccnn2c1-c1ccc(N2CCOCC2)nc1 [compound 31, 2-methyl-3-[6-(4-morpholinyl)-3-pyridinyl]-8-(4-pyridinyl)-imidazo[1,2-b]pyridazine]",0.0603,,,,,,,,,,"melting point: > 300 °C (dec.); ED50 ([2]; n.d.: found not active at threshold dose 2.5 mg/kg or 10 mg/kg (a), not further tested): > 2.5 mg/kg"
"COCCn1cc(-c2c(C)nc3c(N4CCOCC4)ccnn23)cn1 [compound 36, 3-[1-(2-methoxyethyl)-1H-pyrazol-4-yl]-2-methyl-8-(4-morpholinyl)-imidazo[1,2-b]pyridazine]",0.0562,> 10,> 10,> 10,> 10,> 10,> 10,0.0562,> 10,5,IC50 [3]: > 10 µM; IC50 [7]: > 10 µM
"COc1cc2ncnc(N3CC[C@@H](Oc4cnc5ccccc5n4)C3)c2cc1OC [PQ10, reference compound]",,,,,,,,,,,"T2(A) exploration time of familiar object, retention trial [10]: 7.9 s; T2(B) exploration time of novel object, retention trial [10]: 19.9 s; DI (discrimination index) ([11]; PCP + 1 mg/kg p.o., mean): 0.4193; LMA (no. of lines crossed) ([11]; PCP + 1 mg/kg p.o., mean): 65.5 no. of lines crossed; effects of acute treatment in the NOR task ([11]; acute treatment, oral route 30 min prior to testing, compound 1 0.3-1.0 mg/kg, PQ10 1.0 mg/kg, sub-chronic PCP female rats): selective for the retention phase"
"COCCc1ccc(-c2c(C3CC3)nc3c(N4CCOCC4)ccnn23)cn1 [compound 22, 2-cyclopropyl-3-[6-(2-methoxyethyl)-3-pyridinyl]-8-(4-morpholinyl)-imidazo[1,2-b]pyridazine]",0.0562,2.75,6.76,28.2,> 50.1,> 50.1,5.89,0.0562,3.47,0.5,"ED50 (PDE10; dose response, subcutaneous administration, read-out: PDE10 in vivo occupancy ED50 sc): 0.94 mg/kg"
"COCCn1cc(-c2c(C3CC3)nc3c(-c4ccncc4)ccnn23)cn1 [compound 142, 2-cyclopropyl-3-[1-(2-methoxyethyl)-1H-pyrazol-4-yl]-8-(4-pyridinyl)-imidazo[1,2-b]pyridazine]",0.0145,2.82,1.82,5.01,5.13,> 10,5.5,0.0145,1.15,5,receptor occupancy at 10 mg/kg (PDE10): 78%
"Cc1nc2c(N3CCOCC3)ccnn2c1-c1ccc(N2CCOCC2)nc1 [compound 19, 2-methyl-8-(4-morpholinyl)-3-[6-(4-morpholinyl)-3-pyridinyl]-imidazo[1,2-b]pyridazine]",0.107,> 10,> 10,> 10,> 10,> 10,> 10,0.107,> 10,5,receptor occupancy at 10 mg/kg (PDE10): 57%
"c1cc(-c2ccnn3c(-c4ccc(N5CCOCC5)nc4)cnc23)ccn1 [compound 61, 3-[6-(4-morpholinyl)-3-pyridinyl]-8-(4-pyridinyl)-imidazo[1,2-b]pyridazine]",0.339,> 10,> 10,> 10,> 10,> 10,7.94,0.339,2.69,1.2,IC50 (PDE1B1): > 10 µM

# Reference: patent US20120220581A1, “IMIDAZO[1,2-b]PYRIDAZINE DERIVATIVES AND THEIR USE AS PDE10 INHIBITORS” (Janssen-Cilag, S.A., priority 2009, published 2012)
